Laboratory results from patent US20160270428A1 (priority 2015, published 2016).

test system: Bacillus amyloliquefaciens LN; type: cell-based

Molecule	Zone diameter of LN [mm]	sensitivity of LN strain to the antibiotic according to CLSI
NCC[C@H](O)C(=O)N[C@@H]1C[C@H](N)[C@@H](O[C@H]2O[C@H](CN)[C@@H](O)[C@H](O)[C@H]2O)[C@H](O)[C@H]1O[C@H]1O[C@H](CO)[C@@H](O)[C@H](N)[C@H]1O [Amikacin]	23.0 ± 0.8	
CC1(C)S[C@@H]2[C@H](NC(=O)[C@H](N)c3ccccc3)C(=O)N2[C@H]1C(=O)O [Ampicillin]	16.2 ± 1.0	no antibiotics sensitivity and resistance
Cn1nnnc1SCC1=C(C(=O)O)N2C(=O)[C@@H](NC(=O)[C@H](O)c3ccccc3)[C@H]2SC1 [Cefamandol]	38.2 ± 7.1	
CO[C@@]1(NC(=O)Cc2cccs2)C(=O)N2C(C(=O)O)=C(COC(N)=O)CS[C@@H]21 [Cefoxitin]	27.6 ± 1.5	
CC(=O)OCC1=C(C(=O)O)N2C(=O)[C@@H](NC(=O)Cc3cccs3)[C@H]2SC1 [Cephalothin]	36.8 ± 1.7	
O=C(N[C@H](CO)[C@H](O)c1ccc([N+](=O)[O-])cc1)C(Cl)Cl [Chloramphenicol]	30.7 ± 5.9	
CC[C@H]1OC(=O)[C@H](C)[C@@H](O[C@H]2C[C@@](C)(OC)[C@@H](O)[C@H](C)O2)[C@H](C)[C@@H](O[C@@H]2O[C@H](C)C[C@H](N(C)C)[C@H]2O)[C@](C)(O)C[C@@H](C)C(=O)[C@H](C)[C@@H](O)[C@]1(C)O [Erythromycin]	24.5 ± 1.5	
C[C@@H](O)[C@H]1C(=O)N2C(C(=O)O)=C(SCCN=CN)C[C@H]12 [Imipeneem]	29.5 ± 0.2	
NC[C@H]1O[C@H](O[C@H]2[C@H](O)[C@@H](O[C@H]3O[C@H](CO)[C@@H](O)[C@H](N)[C@H]3O)[C@H](N)C[C@@H]2N)[C@H](O)[C@@H](O)[C@@H]1O [Kanamycin]	34.0 ± 0.4	
O=C1CN(/N=C/c2ccc([N+](=O)[O-])o2)C(=O)N1 [Nitrofurantoin]	17.3 ± 0.6	
CCn1cc(C(=O)O)c(=O)c2cc(F)c(N3CCNCC3)cc21 [Norfloxacin]	24.7 ± 0.8	
Cc1onc(-c2ccccc2)c1C(=O)N[C@@H]1C(=O)N2[C@@H]1SC(C)(C)[C@@H]2C(=O)O [Oxacillin]	14.3 ± 0.6	
[H]/N=C(/N)N[C@H]1[C@H](O)[C@@H](O)[C@H](O[C@@H]2O[C@@H](C)[C@](O)(C=O)[C@H]2O[C@@H]2O[C@@H](CO)[C@H](O)[C@@H](O)[C@@H]2NC)[C@@H](N/C(N)=N\[H])[C@@H]1O [Streptomycin]	14.3 ± 0.5	no antibiotics sensitivity and resistance
CN(C)[C@@H]1C(O)=C(C(N)=O)C(=O)[C@@]2(O)C(O)=C3C(=O)c4c(O)cccc4[C@@](C)(O)[C@H]3C[C@@H]12 [Tetracycline]	15.3 ± 1.1	
NC[C@H]1O[C@H](O[C@H]2[C@H](O)[C@@H](O[C@H]3O[C@H](CO)[C@@H](O)[C@H](N)[C@H]3O)[C@H](N)C[C@@H]2N)[C@H](N)C[C@@H]1O [Tobramycin]	22.4 ± 1.8	
CN[C@H](CC(C)C)C(=O)N[C@H]1C(=O)N[C@@H](CC(N)=O)C(=O)N[C@H]2C(=O)N[C@H]3C(=O)N[C@H](C(=O)N[C@H](C(=O)O)c4cc(O)cc(O)c4-c4cc3ccc4O)[C@H](O)c3ccc(c(Cl)c3)Oc3cc2cc(c3O[C@@H]2O[C@H](CO)[C@@H](O)[C@H](O)[C@H]2O[C@H]2C[C@](C)(N)[C@H](O)[C@H](C)O2)Oc2ccc(cc2Cl)[C@H]1O [Vancomycin]	19.0 ± 0.8	
Cefoxime	28.7 ± 7.0	
Gentamicin	35.0 ± 9.6	
Neomycin	20.9 ± 2.3	
